Results on 1 molecule are retold here after ChEMBL document CHEMBL3580597 (J Med Chem, 2015).

The structures appear in SMILES notation.

In general, Kd refers to the free concentration of one partner at which half of the binding sites on the other are occupied at equilibrium, for simple one-to-one binding. Read a low Kd as a tighter complex. As usually defined, the IC50 is the concentration needed to halve the response being measured. Lower therefore signals inhibition by little substance. The term Ki denotes a dissociation constant, usually derived from enzyme kinetics or from competition with a known ligand.

Test [1] deals with T1, ATPase family AAA domain-containing protein 2 (Homo sapiens, UniProt Q6PL18).
T1 sequence (Q6PL18 whole entry): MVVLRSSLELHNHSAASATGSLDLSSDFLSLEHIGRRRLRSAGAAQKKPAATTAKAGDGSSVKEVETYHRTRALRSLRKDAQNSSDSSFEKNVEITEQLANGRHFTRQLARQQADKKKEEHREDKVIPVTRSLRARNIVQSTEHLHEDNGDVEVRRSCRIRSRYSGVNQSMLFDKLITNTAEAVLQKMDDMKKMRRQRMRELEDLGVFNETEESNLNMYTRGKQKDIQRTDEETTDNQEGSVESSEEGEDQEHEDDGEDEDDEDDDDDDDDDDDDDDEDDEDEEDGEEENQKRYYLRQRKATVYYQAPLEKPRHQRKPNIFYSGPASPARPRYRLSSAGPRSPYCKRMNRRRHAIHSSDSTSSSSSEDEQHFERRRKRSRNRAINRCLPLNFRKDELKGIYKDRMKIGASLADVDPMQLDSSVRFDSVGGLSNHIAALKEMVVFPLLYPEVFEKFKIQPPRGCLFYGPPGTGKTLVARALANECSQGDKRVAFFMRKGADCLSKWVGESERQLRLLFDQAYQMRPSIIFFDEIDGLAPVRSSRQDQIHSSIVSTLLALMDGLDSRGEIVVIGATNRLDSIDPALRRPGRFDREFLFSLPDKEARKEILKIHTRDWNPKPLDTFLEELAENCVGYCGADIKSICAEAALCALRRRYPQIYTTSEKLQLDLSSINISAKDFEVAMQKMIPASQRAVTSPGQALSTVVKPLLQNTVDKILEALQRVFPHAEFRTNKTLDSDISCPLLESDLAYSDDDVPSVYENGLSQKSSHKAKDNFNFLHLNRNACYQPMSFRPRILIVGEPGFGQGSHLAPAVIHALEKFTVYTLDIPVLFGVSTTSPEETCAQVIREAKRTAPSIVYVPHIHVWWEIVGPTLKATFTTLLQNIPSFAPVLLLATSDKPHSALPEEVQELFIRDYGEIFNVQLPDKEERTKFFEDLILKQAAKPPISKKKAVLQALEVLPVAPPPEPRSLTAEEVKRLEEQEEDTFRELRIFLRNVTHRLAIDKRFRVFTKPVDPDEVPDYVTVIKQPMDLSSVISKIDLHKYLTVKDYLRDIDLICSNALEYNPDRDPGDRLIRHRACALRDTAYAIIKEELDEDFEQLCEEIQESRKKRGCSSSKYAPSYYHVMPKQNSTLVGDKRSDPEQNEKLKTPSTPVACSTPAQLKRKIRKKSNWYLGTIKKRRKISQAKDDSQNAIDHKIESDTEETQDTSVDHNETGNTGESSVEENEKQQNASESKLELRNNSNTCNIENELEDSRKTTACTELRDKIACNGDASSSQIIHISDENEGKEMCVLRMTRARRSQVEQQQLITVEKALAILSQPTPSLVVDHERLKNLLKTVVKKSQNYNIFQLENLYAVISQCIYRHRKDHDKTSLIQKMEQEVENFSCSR
The experiment in a line: Binding affinity to biotinylated ATAD2A (981 to 1108 amino acid residues) (unknown origin) expressed in Rosetta2 DE3 cells by bio-layer interferometry method.

Test [2] has as its target Histone-lysine N-methyltransferase 2A (Homo sapiens, UniProt Q03164). Kind of test: Binding affinity to biotinylated MLL1 (1566 to 1784 amino acid residues) (unknown origin) expressed in Rosetta2 cells by bio-layer interferometry method. On the technique in general: BLI is a label-free optical method that tracks binding on a fibre tip over time.
Test [3] concerns the target Transcription initiation factor TFIID subunit 1 (Homo sapiens, UniProt P21675). The experiment in a line: Binding affinity to biotinylated TAF1B2 (155 to 276 amino acid residues) (unknown origin) expressed in Rosetta2 cells by bio-layer interferometry method.
Test [4] addresses SWI/SNF-related matrix-associated actin-dependent regulator of chromatin subfamily A member 4 (Homo sapiens, UniProt P51532). The experiment in a line: Binding affinity to biotinylated BRG1 (59 to 180 amino acid residues) (unknown origin) expressed in Rosetta2 cells by bio-layer interferometry method.
The target of test [5] is Protein polybromo-1 (Homo sapiens, UniProt Q86U86). The experiment in a line: Binding affinity to biotinylated PB1BR5 (645 to 766 amino acid residues) (unknown origin) expressed in Rosetta2 cells by bio-layer interferometry method.
Test [6] deals with K562. The experiment in a line: cells. It counts as functional, cell-based. As to conditions: Homo sapiens, K562, 96 h.
Test [7] addresses T2, Bromodomain-containing protein 4 (Homo sapiens, UniProt O60885). Kind of test: Displacement of FAM-labeled ZBA248 from BRD4 BD1 (44 to 168 amino acid residues) (unknown origin) expressed in Rosetta2 DE3 cells after 30 mins by fluorescence polarization assay. (In general: Fluorescence polarisation rises when a labelled molecule tumbles more slowly, as on binding a larger partner.)

In test [8] the target is Bromodomain-containing protein 2 (Homo sapiens, UniProt P25440). The experiment in a line: Displacement of FAM-labeled ZBA248 from BRD2 BD1 (72 to 205 amino acid residues) (unknown origin) expressed in Rosetta2 DE3 cells after 30 mins by fluorescence polarization assay.
Test [9] deals with T2, Bromodomain-containing protein 4. Kind of test: biochemical.

Histone-lysine N-methyltransferase 2A, sequence (Q03164 1-2718 limits assumed): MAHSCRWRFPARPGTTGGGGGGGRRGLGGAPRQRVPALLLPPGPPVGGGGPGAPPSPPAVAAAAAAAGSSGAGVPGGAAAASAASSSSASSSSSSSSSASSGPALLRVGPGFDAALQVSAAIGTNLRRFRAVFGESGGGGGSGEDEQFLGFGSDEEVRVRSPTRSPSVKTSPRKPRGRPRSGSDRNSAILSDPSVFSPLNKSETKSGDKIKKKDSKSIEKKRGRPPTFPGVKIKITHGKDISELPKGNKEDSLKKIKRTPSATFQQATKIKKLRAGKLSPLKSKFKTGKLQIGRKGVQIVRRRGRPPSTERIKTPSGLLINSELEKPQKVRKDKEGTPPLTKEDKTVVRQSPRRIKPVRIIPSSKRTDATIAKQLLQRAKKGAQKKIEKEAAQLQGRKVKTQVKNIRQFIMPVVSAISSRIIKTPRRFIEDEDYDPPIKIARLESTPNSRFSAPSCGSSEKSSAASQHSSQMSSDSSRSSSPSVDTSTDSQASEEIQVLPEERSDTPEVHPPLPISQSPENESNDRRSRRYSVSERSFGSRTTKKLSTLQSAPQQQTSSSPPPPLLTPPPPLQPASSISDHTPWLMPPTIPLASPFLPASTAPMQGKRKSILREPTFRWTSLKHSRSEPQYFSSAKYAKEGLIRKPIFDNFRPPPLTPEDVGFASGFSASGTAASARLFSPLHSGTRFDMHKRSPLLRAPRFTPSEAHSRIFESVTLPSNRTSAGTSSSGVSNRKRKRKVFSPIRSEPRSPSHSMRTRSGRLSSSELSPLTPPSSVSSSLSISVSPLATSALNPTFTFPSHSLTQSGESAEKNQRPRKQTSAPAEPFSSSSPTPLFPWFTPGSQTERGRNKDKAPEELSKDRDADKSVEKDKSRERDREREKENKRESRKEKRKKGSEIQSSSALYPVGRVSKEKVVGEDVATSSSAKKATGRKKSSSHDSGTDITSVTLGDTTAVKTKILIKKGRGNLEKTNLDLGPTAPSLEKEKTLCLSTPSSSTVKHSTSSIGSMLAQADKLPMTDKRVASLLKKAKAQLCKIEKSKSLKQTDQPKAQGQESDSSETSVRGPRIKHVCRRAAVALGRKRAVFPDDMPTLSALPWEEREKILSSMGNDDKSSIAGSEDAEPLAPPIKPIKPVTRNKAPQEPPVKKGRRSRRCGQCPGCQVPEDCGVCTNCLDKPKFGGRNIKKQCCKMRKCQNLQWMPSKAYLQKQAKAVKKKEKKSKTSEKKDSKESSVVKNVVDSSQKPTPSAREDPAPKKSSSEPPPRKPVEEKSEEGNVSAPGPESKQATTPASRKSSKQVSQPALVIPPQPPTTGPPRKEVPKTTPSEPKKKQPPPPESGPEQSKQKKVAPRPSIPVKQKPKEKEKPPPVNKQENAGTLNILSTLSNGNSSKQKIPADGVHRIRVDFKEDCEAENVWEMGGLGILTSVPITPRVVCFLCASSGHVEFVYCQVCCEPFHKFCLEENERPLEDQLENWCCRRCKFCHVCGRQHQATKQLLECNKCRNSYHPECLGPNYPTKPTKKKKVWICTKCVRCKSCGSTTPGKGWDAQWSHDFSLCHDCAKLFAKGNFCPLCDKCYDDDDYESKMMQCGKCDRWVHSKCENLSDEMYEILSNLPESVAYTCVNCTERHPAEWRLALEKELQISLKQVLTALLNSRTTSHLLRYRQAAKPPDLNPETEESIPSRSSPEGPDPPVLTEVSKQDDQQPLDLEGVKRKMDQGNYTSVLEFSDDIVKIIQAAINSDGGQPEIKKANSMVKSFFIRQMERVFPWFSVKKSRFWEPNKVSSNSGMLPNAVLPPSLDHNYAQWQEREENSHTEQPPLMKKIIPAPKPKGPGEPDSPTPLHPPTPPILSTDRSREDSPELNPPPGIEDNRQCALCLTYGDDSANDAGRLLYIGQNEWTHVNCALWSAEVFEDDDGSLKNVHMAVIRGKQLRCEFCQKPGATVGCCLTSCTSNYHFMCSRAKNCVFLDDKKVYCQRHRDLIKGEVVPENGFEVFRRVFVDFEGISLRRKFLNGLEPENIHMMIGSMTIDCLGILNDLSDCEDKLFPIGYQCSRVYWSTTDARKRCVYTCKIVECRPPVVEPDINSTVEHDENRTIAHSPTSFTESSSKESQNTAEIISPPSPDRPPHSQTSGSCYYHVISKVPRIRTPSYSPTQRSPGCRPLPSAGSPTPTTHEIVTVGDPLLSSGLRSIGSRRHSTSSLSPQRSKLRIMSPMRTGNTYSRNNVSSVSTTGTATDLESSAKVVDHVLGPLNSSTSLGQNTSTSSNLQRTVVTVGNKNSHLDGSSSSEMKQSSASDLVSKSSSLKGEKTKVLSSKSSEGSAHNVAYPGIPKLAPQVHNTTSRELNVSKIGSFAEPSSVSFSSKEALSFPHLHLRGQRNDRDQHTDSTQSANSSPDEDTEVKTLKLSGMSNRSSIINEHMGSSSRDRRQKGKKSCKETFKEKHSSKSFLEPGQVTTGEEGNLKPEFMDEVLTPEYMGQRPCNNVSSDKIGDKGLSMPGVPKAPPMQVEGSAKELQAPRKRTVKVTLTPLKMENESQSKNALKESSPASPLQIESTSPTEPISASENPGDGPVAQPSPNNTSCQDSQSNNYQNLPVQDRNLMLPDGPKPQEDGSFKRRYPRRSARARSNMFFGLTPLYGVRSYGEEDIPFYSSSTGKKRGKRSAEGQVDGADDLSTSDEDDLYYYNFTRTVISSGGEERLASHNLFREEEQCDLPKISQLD
Histone-lysine N-methyltransferase 2A, sequence (Q03164 2719-3969 limits assumed): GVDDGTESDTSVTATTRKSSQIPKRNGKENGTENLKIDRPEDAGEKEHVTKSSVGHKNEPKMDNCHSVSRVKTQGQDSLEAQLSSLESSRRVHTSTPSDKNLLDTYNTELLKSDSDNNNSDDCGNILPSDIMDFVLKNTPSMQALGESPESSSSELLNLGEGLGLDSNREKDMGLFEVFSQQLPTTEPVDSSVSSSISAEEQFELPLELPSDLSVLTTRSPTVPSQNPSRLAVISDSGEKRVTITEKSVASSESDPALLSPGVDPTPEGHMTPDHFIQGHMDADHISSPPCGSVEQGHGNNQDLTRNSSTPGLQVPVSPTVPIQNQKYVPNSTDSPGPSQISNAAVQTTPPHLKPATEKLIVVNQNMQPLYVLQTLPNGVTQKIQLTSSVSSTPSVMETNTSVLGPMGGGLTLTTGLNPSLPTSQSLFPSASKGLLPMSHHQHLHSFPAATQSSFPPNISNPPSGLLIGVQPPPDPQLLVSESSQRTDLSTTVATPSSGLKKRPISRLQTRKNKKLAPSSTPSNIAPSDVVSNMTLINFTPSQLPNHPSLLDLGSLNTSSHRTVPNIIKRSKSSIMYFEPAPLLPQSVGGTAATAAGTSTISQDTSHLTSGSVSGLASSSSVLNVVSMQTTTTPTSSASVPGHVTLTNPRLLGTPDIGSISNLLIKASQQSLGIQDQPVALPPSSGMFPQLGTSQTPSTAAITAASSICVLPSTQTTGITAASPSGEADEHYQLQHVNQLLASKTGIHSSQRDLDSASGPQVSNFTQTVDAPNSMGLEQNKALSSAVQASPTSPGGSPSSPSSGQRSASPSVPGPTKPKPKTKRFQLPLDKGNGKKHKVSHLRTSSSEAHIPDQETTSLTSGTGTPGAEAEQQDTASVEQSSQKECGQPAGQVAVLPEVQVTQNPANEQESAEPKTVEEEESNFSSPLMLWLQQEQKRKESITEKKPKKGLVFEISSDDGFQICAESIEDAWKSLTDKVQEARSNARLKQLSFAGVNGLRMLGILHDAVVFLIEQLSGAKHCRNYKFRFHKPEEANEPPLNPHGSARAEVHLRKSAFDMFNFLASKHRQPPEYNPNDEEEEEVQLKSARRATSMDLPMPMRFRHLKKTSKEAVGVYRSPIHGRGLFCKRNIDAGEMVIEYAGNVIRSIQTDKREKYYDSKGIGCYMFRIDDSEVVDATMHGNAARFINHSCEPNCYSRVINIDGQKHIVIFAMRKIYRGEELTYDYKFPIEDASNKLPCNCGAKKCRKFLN
Bromodomain-containing protein 2, sequence (P25440 whole entry, the tested form may be a part): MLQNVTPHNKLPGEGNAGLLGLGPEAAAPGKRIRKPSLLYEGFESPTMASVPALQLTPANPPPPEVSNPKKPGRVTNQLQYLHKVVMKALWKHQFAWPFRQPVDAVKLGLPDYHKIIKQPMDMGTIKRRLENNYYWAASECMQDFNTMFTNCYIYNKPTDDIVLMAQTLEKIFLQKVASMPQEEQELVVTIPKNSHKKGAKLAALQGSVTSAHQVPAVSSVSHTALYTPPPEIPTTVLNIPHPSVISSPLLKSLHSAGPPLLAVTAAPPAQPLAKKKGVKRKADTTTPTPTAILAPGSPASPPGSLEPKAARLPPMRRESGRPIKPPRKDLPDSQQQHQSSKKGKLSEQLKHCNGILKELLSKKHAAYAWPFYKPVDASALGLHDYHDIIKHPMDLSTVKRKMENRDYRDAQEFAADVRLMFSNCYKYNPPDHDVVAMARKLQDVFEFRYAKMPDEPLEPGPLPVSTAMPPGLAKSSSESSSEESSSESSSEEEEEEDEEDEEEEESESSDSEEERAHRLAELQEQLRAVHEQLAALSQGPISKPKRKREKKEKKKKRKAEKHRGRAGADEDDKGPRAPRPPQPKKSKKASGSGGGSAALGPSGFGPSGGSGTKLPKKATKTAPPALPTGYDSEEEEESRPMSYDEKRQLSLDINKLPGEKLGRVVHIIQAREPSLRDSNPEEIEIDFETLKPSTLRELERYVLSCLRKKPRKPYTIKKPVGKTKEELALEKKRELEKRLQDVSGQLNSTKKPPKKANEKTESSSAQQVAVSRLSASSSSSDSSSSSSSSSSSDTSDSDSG

Consider `COc1cc2c(cc1-c1c(C)noc1C)[nH]c1ccnc(-c3c(C4CC4)n[nH]c3C)c12`, for which the Kd in [1] was greater than 10000 nM; in test [2], 9500 nM; in test [3] it was greater than 10000 nM; in test [4], greater than 10000 nM; in test [5], greater than 10000 nM; in test [9], 47 nM. Besides, the IC50 is greater than 2000 nM in [6] and 75.5 nM in test [7]. Further, the inhibition constant Ki in [7] was found to be 24.7 nM; in test [8], 11.1 nM.
